Each structure is given as a SMILES string.

Test [1] concerns BaF3 (EGFR Del19/T790M/C797S). Description: Cell proliferation IC50 assay (Cell Titer GLO), BaF3 DTC cells. To be noted: Mus musculus, Ba/F3 EGFR-Del19/T790M/C797S, Table 6, 72 h. The class given is cell-based. As for the experimental part:
IC50 of compounds in the present invention was determined by Cell Titer GLO reagent from Promega. The procedures are as follows:
Tumor cells were cultured in specified medium in an incubator at 37° C. and 5% CO2. The cells were passaged periodically. Cells at the logarithmic growth phase were collected for plating at a density of 2000-4000 cells/well. The next day, the compounds of the present invention were serially diluted and added to the cells, with DMSO being the negative control and the culture media without cells being the blank control. The plate was incubated in the incubator for 72 h. The cell viability assay was performed by adding the detection reagents to the cell culture media according to Cell Titer GLO reagent instructions and detecting luminescent signals on an EnVision microplate reader (PerkinElmer).
Inhibition of cell growth by the compounds of the present invention was plotted by Prism Graphpad software for statistically calculating the IC50 of the compound of the present invention.
(In general: ATP-based viability assays read luminescence as a measure of living cells.)

The test system of test [2] is BaF3 (EGFR L858R/T790M/C797S). The experiment in a line: Cell proliferation IC50 assay (Cell Titer GLO), BaF3 LTC cells. The test is classed as cell-based. To be noted: Mus musculus, Ba/F3 EGFR, Table 6, 72 h. Summed up:
(§1)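 Cells plated at 2000-4000 cells/well and treated the next day with serially diluted compound for 72 h at 37° C, 5% CO2. Viability read by CellTiter-Glo luminescence, normalised to DMSO and cell-free blank controls; IC50 fitted from growth inhibition curves.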

Another test concerns the target T1, BaF3 (EGFR Del19/C797S) (Homo sapiens, UniProt P00533, C797S, cells depend on it, form not given).
T1 construct: BaF3 (EGFR Del19/C797S)|DC|RPMI1640 + 10% FBS
The experiment in a line: Cell proliferation IC50 assay (Cell Titer GLO), BaF3 DC cells. The test is classed as cell-based, mouse. As to conditions: Table 6, 72 h. The essentials: as §1

In a further test the test system is BaF3 (EGFR WT). Description: Cell proliferation IC50 assay (Cell Titer GLO), BaF3 WT cells. The test is classed as cell-based. As to conditions: Mus musculus, Ba/F3 EGFR, Table 6, 10 ng/ml EGF, 72 h. The essentials: as §1
The test system of another test is A431. The experiment in a line: Cell proliferation IC50 assay (Cell Titer GLO), A431 cells. The class given is cell-based. To be noted: Homo sapiens, A-431; Table 6; A431, 72 h; read-out: A431 IC50. The essentials: as §1

T1 sequence (P00533 with tags, fused parts or gaps DEL746-750/C797S, form open): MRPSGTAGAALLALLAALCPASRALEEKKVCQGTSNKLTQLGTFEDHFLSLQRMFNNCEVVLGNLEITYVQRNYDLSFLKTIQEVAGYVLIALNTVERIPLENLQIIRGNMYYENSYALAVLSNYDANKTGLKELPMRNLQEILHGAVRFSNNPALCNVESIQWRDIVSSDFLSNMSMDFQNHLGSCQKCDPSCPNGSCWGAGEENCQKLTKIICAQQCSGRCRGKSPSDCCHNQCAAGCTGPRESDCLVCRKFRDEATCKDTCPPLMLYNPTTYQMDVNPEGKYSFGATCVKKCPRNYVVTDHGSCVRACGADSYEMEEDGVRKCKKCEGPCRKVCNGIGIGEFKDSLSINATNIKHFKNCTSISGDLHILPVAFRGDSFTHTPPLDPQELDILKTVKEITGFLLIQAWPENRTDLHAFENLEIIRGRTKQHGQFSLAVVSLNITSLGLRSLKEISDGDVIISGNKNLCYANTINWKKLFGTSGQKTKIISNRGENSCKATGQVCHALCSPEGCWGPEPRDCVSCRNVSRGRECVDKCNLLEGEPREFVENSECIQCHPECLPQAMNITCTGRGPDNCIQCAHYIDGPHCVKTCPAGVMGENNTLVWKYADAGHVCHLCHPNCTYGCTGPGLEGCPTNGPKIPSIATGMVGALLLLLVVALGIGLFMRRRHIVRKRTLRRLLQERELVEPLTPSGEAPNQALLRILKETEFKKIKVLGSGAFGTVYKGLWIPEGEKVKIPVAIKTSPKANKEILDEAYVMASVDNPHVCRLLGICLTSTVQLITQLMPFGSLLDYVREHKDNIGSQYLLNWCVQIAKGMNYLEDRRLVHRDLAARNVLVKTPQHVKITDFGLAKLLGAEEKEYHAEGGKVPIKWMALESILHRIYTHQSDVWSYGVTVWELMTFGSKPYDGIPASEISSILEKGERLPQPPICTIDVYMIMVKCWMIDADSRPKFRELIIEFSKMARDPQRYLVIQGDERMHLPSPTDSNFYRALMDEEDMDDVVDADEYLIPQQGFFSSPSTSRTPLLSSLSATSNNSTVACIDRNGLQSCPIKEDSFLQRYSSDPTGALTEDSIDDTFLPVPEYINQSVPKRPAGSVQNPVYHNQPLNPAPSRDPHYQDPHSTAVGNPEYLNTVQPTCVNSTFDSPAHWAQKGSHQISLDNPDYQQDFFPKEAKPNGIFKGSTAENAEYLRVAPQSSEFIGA

For the molecule `CCc1cc(Nc2ncc(Cl)c(Nc3ccccc3P(C)(C)=O)n2)c(OC)cc1N1CCC(N2C[C@@H]3C[C@H]2CN3CCOc2cccc3c2CN(C2CCC(=O)NC2=O)C3=O)CC1` (some centres unmarked) [Example E137], the half-maximal inhibitory concentration (IC50) turned out to be 11.5 nM in test [1]; 76.3 nM in test [2]; 6.6 nM against BaF3 (EGFR Del19/C797S); 1080 nM with BaF3 (EGFR WT); 1270 nM in the test on A431.
The like results for `CCc1cc(Nc2ncc(Cl)c(Nc3ccccc3P(C)(C)=O)n2)c(OC)cc1N1CCC(N2CCN(CCOCCc3cccc4c3CN(C3CCC(=O)NC3=O)C4=O)CC2)CC1` (centres unmarked) [Example E109] were, in that order, 10.5 nM, 83.3 nM, 6.5 nM, over 4000 nM and 1140 nM.
For `CCc1cc(Nc2nc(Nc3ccccc3P(C)(C)=O)c3cc[nH]c3n2)c(C)cc1N1CCC(N2CCN(CCCCOc3cccc4c3CN(C3CCC(=O)NC3=O)C4=O)CC2)CC1` (centres unmarked) [Example E140] the same measures were 7.97 nM, 54.6 nM, 8.1 nM, over 4000 nM and over 4000 nM.
For `COc1cc(N2CCC(N3CCc4cc(Oc5cccc6c5CN(C5CCC(=O)NC5=O)C6=O)ccc4C3)CC2)c(C2CC2)cc1Nc1ncc(Cl)c(Nc2ccccc2P(C)(C)=O)n1` (centres unmarked) [Example E75] the same measures were 26.3 nM, 64.2 nM, 20.2 nM, 80.3 nM and over 4000 nM.
For the molecule `COc1cc(N2CCC(N3CCN(CCCCOc4cccc5c4CN(C4CCC(=O)NC4=O)C5=O)CC3)CC2)c(CC#N)cc1Nc1ncc(Cl)c(Nc2ccccc2P(C)(C)=O)n1` (centres unmarked) [Example E179], the IC50 in test [1] is 5.94 nM; in test [2], 44.6 nM; at BaF3 (EGFR Del19/C797S), 1.3 nM; in the test on BaF3 (EGFR WT) it was 153 nM; in the test on A431, 1160 nM.
For `CCc1cc(Nc2ncc(Cl)c(Nc3ccccc3P(C)(C)=O)n2)c(OC)nc1N1CCC(N2CCN(CCCCOc3cccc4c3CN(C3CCC(=O)NC3=O)C4=O)CC2)CC1` (centres unmarked) [Example E115], the IC50 in test [1] was found to be 5.19 nM; in test [2] it was 24.4 nM; on BaF3 (EGFR Del19/C797S) it was 1.4 nM; with BaF3 (EGFR WT), 779 nM; in the test on A431, 1160 nM.
For `CCc1cc(Nc2ncc(Cl)c(Nc3ccccc3P(C)(C)=O)n2)c(OC)cc1N1CCC(N2CCN(C(C)(C)C#Cc3cccc4c3CN(C3CCC(=O)NC3=O)C4=O)CC2)CC1` (centres unmarked) [Example E156] the same measures were 10.7 nM, 218 nM, 16.7 nM, over 4000 nM and at least 1540 nM.
The like results for `CCc1cc(Nc2ncc(Cl)c(Nc3ccccc3P(C)(C)=O)n2)c(OC)cc1N1CCC(N2CCN(CCCC#Cc3ccc4c(N5CCC(=O)NC5=O)nn(C)c4c3)CC2)CC1` [Example E97] were, in that order, 45.6 nM, 173 nM, 20.6 nM, 1060 nM and 1070 nM.
With `COc1cc(N2CCC(N3CCN(CCCCOc4cccc5c4CN(C4CCC(=O)NC4=O)C5=O)CC3)CC2)c(C#N)cc1Nc1ncc(Cl)c(Nc2ccccc2P(C)(C)=O)n1` (centres unmarked) [Example E103], the half-maximal inhibitory concentration (IC50) in test [1] came out at 5.54 nM; in test [2], 21.8 nM; against BaF3 (EGFR Del19/C797S), 4.6 nM; in the test with BaF3 (EGFR WT), 639 nM; in the test on A431, 1010 nM.
The like results for `COc1cc(C2CCN(C3CCN(CCCCOc4cccc5c4CN(C4CCC(=O)NC4=O)C5=O)CC3)CC2)c(OC)cc1Nc1ncc(Cl)c(Nc2ccccc2P(C)(C)=O)n1` (centres unmarked) [Example E98] were, in that order, 15.5 nM, 45.2 nM, 5 nM, 566 nM and 1170 nM.
Turning to `CCc1cc(Nc2ncc(Cl)c(Nc3ccccc3P(C)(C)=O)n2)c(OC)cc1N1CCC(N2CCN(CC(C)(C)Oc3cccc4c3CN(C3CCC(=O)NC3=O)C4=O)CC2)CC1` (centres unmarked) [Example E157], the IC50 in test [1] was determined as 11.2 nM; in test [2] it was 103 nM; against BaF3 (EGFR Del19/C797S), 33.7 nM; in the test on BaF3 (EGFR WT), 3780 nM; in the test with A431 it was 3170 nM.
For `CCc1cc(Nc2ncc(Cl)c(Nc3ccccc3P(C)(C)=O)n2)c(OC)cc1N1CCC(N2CCN(CCOc3cccc4c3CN(C3CCC(=O)NC3=O)C4=O)C(C)(C)C2)CC1` (centres unmarked) [Example E108] the same measures were 10.5 nM, 76.7 nM, 3.2 nM, 1750 nM and 3550 nM.
Consider `COc1cc(N2CCC(N3CCN(CCCCOc4cccc5c4CN(C4CCC(=O)NC4=O)C5=O)CC3)CC2)c(C2CC2)cc1Nc1ncc(Cl)c(Nc2ccccc2P(C)(C)=O)n1` (centres unmarked) [Example E35], for which the IC50 in test [1] was 5.59 nM; in test [2], 25.7 nM; against BaF3 (EGFR Del19/C797S), 8.9 nM; with BaF3 (EGFR WT), 2500 nM; with A431 it was 1640 nM.
In the case of `CCc1cc(Nc2ncc(Cl)c(Nc3ccccc3P(C)(C)=O)n2)c(OC(F)F)cc1N1CCC(N2CCN(CCOc3cccc4c3CN(C3CCC(=O)NC3=O)C4=O)CC2)CC1` (centres unmarked) [Example E151], the 50% inhibitory concentration (IC50) was 3.85 nM in test [1]; 56.1 nM in test [2]; 6.7 nM against BaF3 (EGFR Del19/C797S); over 4000 nM in the test on BaF3 (EGFR WT); 3160 nM in the test on A431.
The like results for `CCc1cc(Nc2ncc(Cl)c(Nc3ccccc3P(C)(C)=O)n2)c(OC)cc1N1CCC(N2CCN(CCCCCc3ccc4c(c3)CN(C3CCC(=O)NC3=O)C4=O)CC2)CC1` (centres unmarked) [Example E38] were, in that order, 6.23 nM, 16.5 nM, 3.4 nM, 461 nM and 1020 nM.
The like results for `CCc1cc(Nc2ncc(Cl)c(Nc3ccccc3P(C)(C)=O)n2)c(OC)cc1N1CCC(N(C)CCCCOc2cccc3c2CN(C2CCC(=O)NC2=O)C3=O)CC1` (centres unmarked) [Example E116] were, in that order, 7.32 nM, 56.3 nM, 4.3 nM, over 4000 nM and 1220 nM.
For `CCc1cc(Nc2ncc(Cl)c(Nc3ccc(C)c(C)c3P(C)(C)=O)n2)c(OC)cc1N1CCC(N2CCN(CCCCOc3cccc4c3CN(C3CCC(=O)NC3=O)C4=O)CC2)CC1` (centres unmarked) [Example E63] the same measures were 7.31 nM, 49.3 nM, 2.6 nM, 659 nM and 1150 nM.
`CCc1cc(Nc2ncc(Cl)c(Nc3ccccc3P(C)(C)=O)n2)c(OC)cc1N1CCC(N2CCN(C3(CC#Cc4cccc5c4CN(C4CCC(=O)NC4=O)C5=O)CC3)CC2)CC1` (centres unmarked) [Example E57]: the IC50 was 72.5 nM in test [1]; 456 nM in test [2]; 22.1 nM against BaF3 (EGFR Del19/C797S); over 4000 nM with BaF3 (EGFR WT); over 4000 nM in the test with A431.
In the case of `COc1cc(N2CCC(N3CCN(CCC#Cc4cccc5c4CN(C4CCC(=O)NC4=O)C5=O)CC3)CC2)c(CO)cc1Nc1ncc(Cl)c(Nc2ccccc2P(C)(C)=O)n1` (centres unmarked) [Example E91], the concentration for half-maximal inhibition (IC50) in test [1] was 18.5 nM; in test [2], 115 nM; on BaF3 (EGFR Del19/C797S), 5.2 nM; in the test on BaF3 (EGFR WT) it was 305 nM; in the test with A431 it was 1430 nM.

In general, IC50 refers to the concentration at which inhibition is half-maximal.

The values above are taken from US20240408216A1, “PROTEIN INHIBITOR OR DEGRADING AGENT, PHARMACEUTICAL COMPOSITION CONTAINING SAME AND PHARMACEUTICAL USE” (JING MEDICINE TECHNOLOGY (SHANGHAI) LTD., priority 2021, published 2024).
